Laboratory results published in patent US10189803B2, “Synthesis of therapeutic and diagnostic drugs centered on regioselective and stereoselective ring opening of aziridinium ions” (ILLINOIS INSTITUTE OF TECHNOLOGY, priority 2008, dated 2019).

Key:
[1] = T1 relaxivity of Gd(III) complexes (Bruker mq60 NMR analyzer); type: physicochemical; conditions: aqueous Gd(III) complexes, pH 7, 59.97 MHz, 37° C.
Protocol: Gd(NE3TA) and Gd(NE3TA-Bn) were synthesized by reacting GdCl3 with NE3TA and NE3TA-Bn, respectively. NE3TA or NE3TA-Bn were mixed with GdCl3 in a molar ratio of 1 to 0.9, and the resulting mixture at pH 7 was heated to 90° C. and stirred until no free Gd(III) ions were detected using an ArsenazoIII (AAIII) assay. Relaxivity of the aqueous […] complexes (pH 7) was measured on a Bruker MQ60 NMR analyzer, and the concentration of the Gd(III) complexes was measured by ICP-MS. […] NE3TA was successfully conjugated with the most common bile acid, cholic acid (FIG. 41).
(§1) Relaxivity Measurements. Relaxivity measurements were acquired by taking the slope of a plot of 1/T1 (s^−1) versus concentration (mM). The longitudinal water proton relaxation times (T1) were determined using a Bruker mq60 NMR (Bruker Canada, Milton, ON, Canada) analyzer operating at 59.97 MHz and 37° C. The agent was added to Millipore water and serially diluted by 0.5 to give a series of 5 concentrations (500 μL total volume) for each relaxivity trial. The T1 was determined using an inversion recovery pulse sequence with 10 different pulse separations per sample, 4 repetitions per echo time, phase cycling, and a recycle delay that is ≥5 times the T1 of each given sample. All curves were fit using a monoexponential curve fitting formula.
Relaxivity of the aqueous Gd(III) complexes (˜pH 7) were measured on a Bruker MQ60 NMR analyzer, and the concentration of the Gd(III) complexes were measured by ICP-MS. […] As mentioned above, the on and off binding to Gd(III) of one of the pendant coordinates would have resulted enhanced relaxivity of Gd(C-NETA) compared to Gd(C-DOTA). Among the evaluated Gd(III) complexes, Gd(C-NE3TA) gives the highest T1 relaxivity at 60 MHz, probably due to increase in q. The relaxation rates for the Gd(III) chelates are dominated by the inner-sphere dipolar coupling between the coordinated water molecule and the paramagnetic Gd(III). The measured relaxivities arise from the exchange between the coordinated water molecule and the surrounding water molecules in solution. […] No indication of Gd(III) dissociation is evident from the relaxivity data, which is in agreement with the in vitro serum stability and in vivo biodistribution studies.
as §1, with “The T1 relaxivity was determined” for “The T1 was determined”

[2] = In vivo biodistribution of radiolabeled complexes in normal athymic mice; conditions: for percent injected dose per gram, Blood / percent injected dose per gram, Femur / percent injected dose per gram, Heart / percent injected dose per gram, Kidney / percent injected dose per gram, Liver / percent injected dose per gram, Liver (second Liver line of Table 7) / percent injected dose per gram, Lung / percent injected dose per gram, Spleen: non-tumor bearing mice, ± SD
Protocol: The in vivo stability of the radiolabeled complexes was evaluated by performing biodistribution studies in normal athymic mice. Selected organs and the blood were harvested at five time points, 0.5, 1, 4, 8, and 24 h post-injection and the radioactivity measured. […] C-NE3TA radiolabeled with ^153Gd was almost completely cleared from blood, liver, spleen, lung, heart, and femur in less than 4 hours, and radioactivity level in the kidney was 0.16%±0.11 ID/g at 24 hour post-injection (Table 9).
In vivo biodistribution studies oh the radiolabeled metal complexes. Female athymic mice were obtained from Charles River Laboratories (Wilmington, Mass.) at 4-6 weeks of age. The pH of the radiolabeled ligands was adjusted to pH ˜7.0 with 0.5 M sodium bicarbonate (pH 10.5) and diluted in phosphate-buffered saline. The radiolabeled ligands ([…] for ^86Y, ^205/6Bi, ^177Lu, and ^203Pb) were administered to the mice in 200 μL of solution via tail vein injection. The mice (5 per data point) were sacrificed by exsanguination at 0.5, 1, 4, 8, and 24 h. Blood and the major organs were harvested, wet-weighed and the radioactivity measured in a γ-scintillation counter (1480 Wizard, Perkin Elmer). The percent injected dose per gram (% ID/g) was determined for each tissue. The values presented are the mean and standard deviation for each tissue.

[3] = In vitro serum stability of radiolabeled C-NE3TA complexes in human serum (SE-HPLC); type: in vitro ADME; conditions: 37° C., up to 11 days
Protocol: C-NE3TA was radiolabeled with ^90Y, ^177Lu, ^203Pb, ^205/6Bi, or ^153Gd as previously described (Chong, H. S.; Milenic, D. E.; Garmestani, K.; Brady, E. D.; Arora, H.; Pfiester, C.; Brechbiel, M. W., Nucl. Med. Biol. 2006, 33, 459-67; Chong H S, Garmestani K, Bryant Jr., L H Milenic D E, Overstreet T, Birch N, Le N, Brady E D, Brechbiel M W. J. Med. Chem. 2006, 49, 2055-2062). In vitro serum stability of the radiolabeled complexes purified via ion-exchange chromatography was performed to determine if C-NE3TA labeled with the radioisotopes remained stable without transchelation or loss of their respective radionuclide in human serum. This was assessed by measuring the transfer of radionuclide from the complex to serum proteins over the course of 11 days.
In vitro stability of the radiolabeled metal complexes. The stability of the purified radiolabeled complexes was evaluated in human serum (Gemini Bioproducts, Woodland, Calif.) for up to 11 days. The serum stability of the radiolabeled complexes was assessed by measuring the transfer of the radionuclide from each complex to serum proteins using SE-HPLC methods. Radiolabeled complexes were diluted to an appropriate volume that allowed for preparation of multiple samples containing 5-10 μCi and were filter-sterilized using a Millex-GV 0.22 μm filter. This stock solution was then mixed with 1400 μL of sterile normal human serum. Aliquots (200 μL) were drawn and separated into individual tubes for subsequent analysis using aseptic technique. The samples were incubated at 37° C., and at designated intervals, subjected to analysis by SE-HPLC. Samples were loaded onto the HPLC and eluted with PBS, pH 7.4 isocratically at 1 mL/min. […] Radioactivity associated with a transfer to serum proteins generally appeared at ˜6 min.

## O=C(O)CNCCN1CCN(CC(=O)O)CCN(CC(=O)O)CC1.[Gd] [Gd(NE3TA)]
[1]
  T1 relaxivity: 3.94 mM⁻¹ s⁻¹

## O=C([O-])CN1CCN(CC(=O)[O-])CCN(CC(=O)O)CCN(CC(=O)[O-])CC1.[Gd+3] [Gd(DOTA), reference compound]
[1]
  T1 relaxivity: 2.97 mM⁻¹ s⁻¹

## O=C(O)CNC(Cc1ccc([N+](=O)[O-])cc1)CN1CCN(CC(=O)O)CCN(CC(=O)O)CC1.[90Y] (centres unmarked) [^90Y-C-NE3TA]
[2]; 0.50 hr
  percent injected dose per gram, Blood: 1.86 ± 1.92 % ID/g
  percent injected dose per gram, Femur: 1.19 ± 0.48 % ID/g
  percent injected dose per gram, Heart: 0.79 ± 0.52 % ID/g
  percent injected dose per gram, Kidney: 2.58 ± 1.04 % ID/g
  percent injected dose per gram, Liver: 1.65 ± 0.59 % ID/g
  percent injected dose per gram, Liver (second Liver line of Table 7): 0.48 ± 0.08 % ID/g
  percent injected dose per gram, Lung: 1.64 ± 0.99 % ID/g
  percent injected dose per gram, Spleen: 0.70 ± 0.15 % ID/g
[2]; 1.00 hr
  percent injected dose per gram, Blood: 0.76 ± 1.09 % ID/g
  percent injected dose per gram, Femur: 0.82 ± 0.26 % ID/g
  percent injected dose per gram, Heart: 0.38 ± 0.31 % ID/g
  percent injected dose per gram, Kidney: 2.00 ± 2.32 % ID/g
  percent injected dose per gram, Liver: 0.88 ± 0.59 % ID/g
  percent injected dose per gram, Liver (second Liver line of Table 7): 0.32 ± 0.07 % ID/g
  percent injected dose per gram, Lung: 1.16 ± 0.65 % ID/g
  percent injected dose per gram, Spleen: 0.47 ± 0.26 % ID/g
[2]; 4.00 hr
  percent injected dose per gram, Blood: 0.05 ± 0.05 % ID/g
  percent injected dose per gram, Femur: 0.30 ± 0.04 % ID/g
  percent injected dose per gram, Heart: 0.06 ± 0.02 % ID/g
  percent injected dose per gram, Kidney: 0.74 ± 0.15 % ID/g
  percent injected dose per gram, Liver: 0.17 ± 0.05 % ID/g
  percent injected dose per gram, Liver (second Liver line of Table 7): 0.29 ± 0.03 % ID/g
  percent injected dose per gram, Lung: 0.10 ± 0.04 % ID/g
  percent injected dose per gram, Spleen: 0.13 ± 0.08 % ID/g
[2]; 8.00 hr
  percent injected dose per gram, Blood: 0.02 ± 0.00 % ID/g
  percent injected dose per gram, Femur: 0.22 ± 0.06 % ID/g
  percent injected dose per gram, Heart: 0.05 ± 0.01 % ID/g
  percent injected dose per gram, Kidney: 0.49 ± 0.10 % ID/g
  percent injected dose per gram, Liver: 0.20 ± 0.16 % ID/g
  percent injected dose per gram, Liver (second Liver line of Table 7): 0.22 ± 0.03 % ID/g
  percent injected dose per gram, Lung: 0.16 ± 0.22 % ID/g
  percent injected dose per gram, Spleen: 0.07 ± 0.02 % ID/g
[2]; 24.00 hr
  percent injected dose per gram, Blood: 0.00 ± 0.00 % ID/g
  percent injected dose per gram, Femur: 0.08 ± 0.02 % ID/g
  percent injected dose per gram, Heart: 0.02 ± 0.01 % ID/g
  percent injected dose per gram, Kidney: 0.35 ± 0.05 % ID/g
  percent injected dose per gram, Liver: 0.10 ± 0.03 % ID/g
  percent injected dose per gram, Liver (second Liver line of Table 7): 0.17 ± 0.02 % ID/g
  percent injected dose per gram, Lung: 0.23 ± 0.36 % ID/g
  percent injected dose per gram, Spleen: 0.07 ± 0.02 % ID/g
[2]; normal athymic mice
  blood and organ clearance (in words): rapid blood and liver clearance
[3]
  stability in human serum (in words): no measurable loss of radioactivity

## O=C(O)CNC(Cc1ccc([N+](=O)[O-])cc1)CN1CCN(CC(=O)O)CCN(CC(=O)O)CC1.[177Lu] (centres unmarked) [^177Lu-C-NE3TA]
[2]; 0.50 hr
  percent injected dose per gram, Blood: 0.93 ± 0.30 % ID/g
  percent injected dose per gram, Femur: 1.06 ± 1.35 % ID/g
  percent injected dose per gram, Heart: 0.37 ± 0.08 % ID/g
  percent injected dose per gram, Kidney: 2.78 ± 0.99 % ID/g
  percent injected dose per gram, Liver: 0.82 ± 0.27 % ID/g
  percent injected dose per gram, Lung: 0.87 ± 0.22 % ID/g
  percent injected dose per gram, Spleen: 0.33 ± 0.08 % ID/g
[2]; 1.00 hr
  percent injected dose per gram, Blood: 0.31 ± 0.04 % ID/g
  percent injected dose per gram, Femur: 0.39 ± 0.13 % ID/g
  percent injected dose per gram, Heart: 0.19 ± 0.09 % ID/g
  percent injected dose per gram, Kidney: 1.57 ± 0.52 % ID/g
  percent injected dose per gram, Liver: 0.69 ± 0.20 % ID/g
  percent injected dose per gram, Lung: 0.42 ± 0.16 % ID/g
  percent injected dose per gram, Spleen: 0.28 ± 0.20 % ID/g
[2]; 4.00 hr
  percent injected dose per gram, Blood: 0.12 ± 0.02 % ID/g
  percent injected dose per gram, Femur: 0.36 ± 0.11 % ID/g
  percent injected dose per gram, Heart: 0.08 ± 0.02 % ID/g
  percent injected dose per gram, Kidney: 1.34 ± 0.09 % ID/g
  percent injected dose per gram, Liver: 0.50 ± 0.02 % ID/g
  percent injected dose per gram, Lung: 0.17 ± 0.03 % ID/g
  percent injected dose per gram, Spleen: 0.19 ± 0.07 % ID/g
[2]; 8.00 hr
  percent injected dose per gram, Blood: 0.06 ± 0.01 % ID/g
  percent injected dose per gram, Femur: 0.28 ± 0.15 % ID/g
  percent injected dose per gram, Heart: 0.10 ± 0.11 % ID/g
  percent injected dose per gram, Kidney: 1.16 ± 0.19 % ID/g
  percent injected dose per gram, Liver: 0.36 ± 0.05 % ID/g
  percent injected dose per gram, Lung: 0.15 ± 0.03 % ID/g
  percent injected dose per gram, Spleen: 0.13 ± 0.02 % ID/g
[2]; 24.00 hr
  percent injected dose per gram, Blood: 0.01 ± 0.00 % ID/g
  percent injected dose per gram, Femur: 0.38 ± 0.10 % ID/g
  percent injected dose per gram, Heart: 0.02 ± 0.01 % ID/g
  percent injected dose per gram, Kidney: 0.84 ± 0.08 % ID/g
  percent injected dose per gram, Liver: 0.31 ± 0.04 % ID/g
  percent injected dose per gram, Lung: 0.07 ± 0.03 % ID/g
  percent injected dose per gram, Spleen: 0.12 ± 0.05 % ID/g
[3]
  stability in human serum (in words): no measurable loss of radioactivity
